Drawing on patent US20050043341A1, “3-'Hydroxy-(-4-trifluoromethylphenyl)-methyl-7-spirocyclobutyl-5,6,7 8-tetrahydroquinolin-5-ol derivatives and the use of the same as cholesterol ester transfer protein (cetp) inhibitors” (priority 2001, published 2005), this text covers IC50 and inhibition for 9 compounds.

Where two headings read alike, the source gives them in different places.

Test [1] concerns the target T1, CETP (Homo sapiens, UniProt P11597).
T1 construct: CETP is obtained in partially purified form from human plasma; from tissue; host or cells: human plasma
T1 sequence (P11597 18-493): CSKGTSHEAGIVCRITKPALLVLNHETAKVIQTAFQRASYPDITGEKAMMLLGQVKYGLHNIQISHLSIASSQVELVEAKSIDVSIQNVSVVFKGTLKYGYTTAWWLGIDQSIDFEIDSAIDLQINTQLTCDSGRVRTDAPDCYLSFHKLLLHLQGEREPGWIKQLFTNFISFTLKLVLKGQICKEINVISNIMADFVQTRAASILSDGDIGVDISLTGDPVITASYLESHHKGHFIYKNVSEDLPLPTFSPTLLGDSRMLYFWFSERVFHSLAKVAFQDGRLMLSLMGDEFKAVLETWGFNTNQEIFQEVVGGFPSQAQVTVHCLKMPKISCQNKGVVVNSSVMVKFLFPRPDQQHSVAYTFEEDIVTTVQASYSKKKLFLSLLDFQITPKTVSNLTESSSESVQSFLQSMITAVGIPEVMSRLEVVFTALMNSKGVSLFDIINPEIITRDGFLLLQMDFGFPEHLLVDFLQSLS
Kind of test: CETP fluorescence test. The format is biochemical. The note with it: CETP from human plasma, 37° C., 4 hours; read-out: IC50 (nM) Fluor. test. How it is done:
(§1) CETP is obtained in partially purified form from human plasma by differential centrifugation and column chromatography and used for the test. To this end, human plasma is adjusted to a density of 1.21 g per ml using NaBr and centrifuged at 4° C. at 50000 rpm for 18 h. The bottom fraction (d>1.21 g/ml) is applied to a Sephadex® Phenyl-Sepharose 4B (Pharmacia) column, washed with 0.15 M NaCl/0.001 M tris HCl pH 7.4 and then eluted with dist. water. Die CETP-active fractions are pooled, dialysed against 50 mM Na acetate pH 4.5 and applied to a CM-Sepharose® (Pharmacia) column. The mixture is then eluted using a linear gradient (0-1 M NaCl). The pooled CETP fractions are dialysed against 10 mM TrisHCl pH 7.4 and then further purified by chromatography on a Mono Q® column (Pharmacia).
Measurement of the CETP-catalysed transfer of a fluorescent cholesterol ester between liposomes—modified according to the procedure of Bisgaier et al., J. Lipid Res. 34, 1625 (1993).
For the production of the donor liposomes, 1 mg of cholesteryl 4,4-difluoro-5,7-dimethyl-4-bora-3a,4a-diaza-s-indacene-3-dodecanoate (cholesteryl BODIPY® FL C12, Molecular Probes) is dissolved in 600 μl of dioxane with 5.35 mg of triolein and 6.67 mg of phosphatidylcholine with gentle warming in an ultrasonic bath and this solution is added very slowly with ultrasonication to 63 ml of 50 mM tris/HCl, 150 mM NaCl, 2 mM EDTA buffer pH 7.3 at RT.
The suspension is then ultrasonicated under an N2 atmosphere for 30 minutes in the Braukson ultrasonic bath at about 50 watts, the temperature being kept at about 20° C.
The acceptor liposomes are obtained analogously from 86 mg of cholesteryl oleate, 20 mg of triolein and 100 mg of phosphatidylcholine dissolved in 1.2 ml of dioxane and 114 ml of above buffer by ultrasonication at 50 watts (20° C.) for 30 minutes.
For testing, a test mix consisting of 1 part of above buffer, 1 part of donor liposomes and 2 parts of acceptor liposomes is used.
80 μl of test mix are treated with 1-3 μg of enriched CETP fraction, obtained from human plasma by means of hydrophobic chromatography, and 2 μl of the substance to be investigated in DMSO and incubated at 37° C. for 4 hours.
The change in the fluorescence at 485/535 nm is a measure of the CE transfer; the inhibition of the transfer in comparison to the control batch without substance is determined.

The target in test [2] is T1, CETP. Kind of test: CETP-SPA test. The format is biochemical. The note with it: 3H-cholesterol ester transfer from HDL to biotin-LDL, 37° C., 18 h. Here is the method:
as §1
50 ml of fresh human EDTA plasma are adjusted to a density of 1.12 using NaBr and centrifuged at 4° C. in a Ty 65 rotor at 50000 rpm for 18 h. The upper phase is used for the obtainment of cold LDL. The lower phase is dialysed against 3×41 of PDB buffer (10 mM tris/HCl pH 7.4, […], 1 mM EDTA, 0.02% NaN3). Per 10 ml of retentate volume, 20 μl of 3H-cholesterol (Dupont NET-725; 1 μC/μl dissolved in ethanol!) is then added and the mixture is incubated at 37° C. under N2 for 72 h.
The batch is then adjusted to the density 1.21 using NaBr and centrifuged at 20° C. in a Ty 65 rotor at 50000 rpm for 18 h. The upper phase is recovered and the lipoprotein fractions are purified by gradient centrifugation. To this end, the isolated, labelled lipoprotein fraction is adjusted to a density of 1.26 using NaBr. 4 ml each of this solution are covered in centrifuged tubes (SW 40 rotor) with a layer of 4 ml of a solution of density 1.21 and 4.5 ml of a solution of 1.063 (density solutions of PDB buffer and NaBr) and then centrifuged for 24 h at 38000 rpm and 20° C. in the SW 40 rotor. The intermediate layer lying between the density 1.063 and 1.21, containing the labelled HDL, is dialysed against 3×100 volumes of PDB buffer at 4° C.
The retentate contains radiolabelled ^3H-CE-HDL, which, adjusted to about 5×10^6 cmp per ml, is used for the test.
For testing of the CETP activity, the transfer of ^3H-cholesterol ester from human HD lipoproteins to biotinylated LD lipoproteins is measured.
The reaction is ended by addition of streptavidin-SPA®beads (Amersham) and the transferred radioactivity is determined directly in a liquid scintillation counter.
In the test batch, 10 μl of HDL-^3H-cholesterol ester (˜50000 cpm) are incubated at 37° C. for 18 h with 10 μl of biotin-LDL (Amersham) in 50 mM Hepes/0.15 M NaCl/0.1% bovine serum albumin/0.05% NaN3 pH 7.4 containing 10 μl of CETP (1 mg/ml) and 3 μl of solution of the substance to be tested (dissolved in 10% DMSO/1% RSA). 200 μl of the SPA-streptavidin bead solution (TRKQ 7005) are then added, incubated further with shaking for 1 h and then measured in a scintillation counter.
Corresponding incubations with 10 μl of buffer, 10 μl of CETP at 4° C. and 10 μl of CETP at 37° C. serve as controls.
The activity transferred in the control batches with CETP at 37° C. is rated as 100% transfer. The substance concentration at which this transfer is reduced to half is specified as the IC50 value.

For test [3], the target named is T2, CETP activity in the serum (Homo sapiens, UniProt P11597).
T2 construct: determination of its basal CETP activity in the serum; from tissue; host or cells: serum of transgenic hCETP mice
T2 sequence (P11597 18-493): T1 sequence (P11597 18-493)
The test can be described thus: Ex vivo activities on transgenic hCETP mice (serum CETP activity after oral administration). To be noted: mouse, cholesteryl ester transport in serum. Here is the method: To test for CETP-inhibitory activity, the substances are administered orally using a stomach tube to transgenic hCETP mice of our own breeding (Dinchuk et al. BBA (1995) 1295-301). To this end, male mice are randomly assigned to groups having an equal number of animals, as a rule n=3, one day before the start of the experiment. Before administration of the substance, blood is taken from each mouse by puncture of the retroorbital venous plexus for the determination of its basal CETP activity in the serum (T1). The test substance is then administered to the animals using the stomach tube. At specific times after administration of the test substance, blood is taken from the animals by puncture a second time (T2), as a rule 1, or 3 and 6 h after substance administration, but if appropriate this can also be carried out at another time.
In order to be able to assess the inhibitory activity of a substance, for each time, i.e. 1 or 3 or 6 h, a corresponding control group is employed whose animals only receive the formulating agent without substance. In the control animals, the second blood sampling per animal is carried out as in the substance-treated animals in order to be able to determine the change in the CETP activity without inhibitor over the corresponding experimental time interval (1, 3 or 6 h).
After termination of the clotting, the blood samples are centrifuged and the serum is removed by pipette.
For the determination of the CETP activity, the cholesteryl ester transport over 4 h is determined. To this end, as a rule 2 μl of serum are employed in the test batch and the test is carried out as described under “CETP fluorescence test”.
The differences in the cholesteryl ester transport (pM CE*/h (T2)−pM CE*/h (T1)) are calculated for each animal and averaged in the groups. A substance which at one of the times reduces the cholesteryl ester transport by >30% is regarded as active.

Where [4] appears, read: 1 h after administration, read-out: % inhibition at 30 mg/kg, 1 h.
Setting [5] is: 3 h after administration, read-out: % inhibition at 30 mg/kg, 3 h.
[6] abbreviates: 6 h after administration, read-out: % inhibition at 30 mg/kg, 6 h.

A word on the IC50: it is the concentration that gives 50% inhibition. With `O[C@@H](c1ccc(C(F)(F)F)cc1)c1c(C2CCCC2)nc2c(c1C1CCC1)[C@@H](O)CC1(CCC1)C2` [Example 73, (5S)-2-Cyclopentyl-4-cyclobutyl-3-[(S)-hydroxy-(4-trifluoromethylphenyl)-methyl]-7-spirocyclobutyl-5,6,7,8-tetrahydroquinolin-5-ol], the IC50 on CETP [1] is 800 nM.
As to `O[C@@H](c1ccc(C(F)(F)F)cc1)c1c(C2CCCC2)nc2c(c1-c1ccsc1)[C@@H](O)CC1(CCC1)C2` [Example 59, (5S)-2-Cyclopentyl-4-(3-thienyl)-3-[(S)-hydroxy-(4-trifluoromethylphenyl)-methyl]-7-spirocyclobutyl-5,6,7,8-tetrahydroquinolin-5-ol], the IC50 came out at 60 nM at CETP [1] and 35 nM against CETP [2].
Consider `CC(C)c1nc2c(c(C3CCCCC3)c1[C@@H](O)c1ccc(C(F)(F)F)cc1)[C@@H](O)CC1(CCC1)C2` [Example 65, (5S)-2-Isopropyl-4-cyclohexyl-3-[(S)-hydroxy-(4-trifluoromethylphenyl)-methyl]-7-spirocyclobutyl-5,6,7,8-tetrahydroquinolin-5-ol], for which the IC50 on CETP [1] worked out at 80 nM. In addition, the inhibition at 30 mg/kg in test [3] (setting [4]) is 69%; in test [3] (setting [5]) it was 46%; in test [3] (setting [6]), 28%.
As for `O[C@@H](c1ccc(C(F)(F)F)cc1)c1c(C2CCCC2)nc2c(c1-c1cccs1)[C@@H](O)CC1(CCC1)C2` [Example 63, (5S)-2-Cyclopentyl-4-(2-thienyl)-3-[(S)-hydroxy-(4-trifluoromethylphenyl)-methyl]-7-spirocyclobutyl-5,6,7,8-tetrahydroquinolin-5-ol], on CETP [1], the concentration for half-maximal inhibition (IC50) was 70 nM. For the same compound, the inhibition at 30 mg/kg in test [3] (setting [4]) was found to be 74%; in test [3] (setting [5]), 55%; in test [3] (setting [6]), 40%.
As for `O[C@@H](c1ccc(C(F)(F)F)cc1)c1c(C2CCCC2)nc2c(c1-c1ccccc1)[C@@H](O)CC1(CCC1)C2` [Example 55, (5S)-2-Cyclopentyl-4-phenyl-3-[(S)-hydroxy-(4-trifluoromethylphenyl)-methyl]-7-spirocyclobutyl-5,6,7,8-tetrahydroquinolin-5-ol], the IC50 at CETP [1] came to 65 nM.
With `CC(C)c1nc2c(c(-c3ccsc3)c1[C@@H](O)c1ccc(C(F)(F)F)cc1)[C@@H](O)CC1(CCC1)C2` [Example 57, (5S)-2-Isopropyl-4-(3-thienyl)-3-[(S)-hydroxy-(4-trifluoromethylphenyl)-methyl]-7-spirocyclobutyl-5,6,7,8-tetrahydroquinolin-5-ol], the results for the IC50 at CETP [1] and on CETP [2] were 45 nM and 40 nM, respectively.
Regarding `CC(C)c1c([C@@H](O)c2ccc(C(F)(F)F)cc2)c(C2CCCC2)nc2c1[C@@H](O)CC1(CCC1)C2` [Example 75, (5S)-2-Cyclopentyl-4-isopropyl-3-[(S)-hydroxy-(4-trifluoromethylphenyl)-methyl]-7-spirocyclobutyl-5,6,7,8-tetrahydroquinolin-5-ol], the IC50 at CETP [1] is 70 nM.
`O[C@@H](c1ccc(C(F)(F)F)cc1)c1c(C2CCCC2)nc2c(c1C1CCCCC1)[C@@H](O)CC1(CCC1)C2` [Example 67, (5S)-2-Cyclopentyl-4-cyclohexyl-3-[(S)-hydroxy-(4-trifluoromethylphenyl)-methyl]-7-spirocyclobutyl-5,6,7,8-tetrahydroquinolin-5-ol]: the concentration for half-maximal inhibition (IC50) on CETP [1] was 60 nM; at CETP [2], 15 nM.
Turning to `CCCc1c([C@@H](O)c2ccc(C(F)(F)F)cc2)c(C2CCCC2)nc2c1[C@@H](O)CC1(CCC1)C2` [Example 77, (5S)-2-Cyclopentyl-4-(1-propyl)-3-[(S)-hydroxy-(4-trifluoromethylphenyl)-methyl]-7-spirocyclobutyl-5,6,7,8-tetrahydroquinolin-5-ol], the half-maximal inhibitory concentration (IC50) at CETP [1] stood at 2000 nM.
